Values of other authors as cited in PMC12337022, “Randomized, Double-Blind, Crossover Study Comparing the Bioavailability of 4 Ashwagandha (Withania somnifera (L.) Dunal) Extracts in Healthy Adults Under Fasting Condition” (Current Therapeutic Research, Clinical and Experimental, 2025).
Like-named read-outs stand apart in the source and are kept apart here.

How the values were obtained:
[1] = test system: Madin-Darby canine kidney cells
[2] = set-up: method as in Singh et al 25; settings: Sprague-Dawley rats, orally at 25 mg/kg and intravenously at 2 mg/kg; ref Singh et al 25
[3] = set-up: method as in Pires et al 27; settings: Phase I dose-escalation, 13 participants, highest dose level tested, HPLC sensitivity 50 ng/mL; ref Pires et al 27
[4] = set-up: method as in Dai et al 20; settings: rat and human liver microsomes; ref Dai et al 20
[5] = Madin-Darby canine kidney cells, in vitro

Molecule | permeability [1, 5] | permeability ([1]; MDCK) | also measured
1,2-deoxy-withastramonolide | highly permeable |  | 
CC1=C(CO)C(=O)O[C@@H]([C@@H](C)[C@H]2CC[C@H]3[C@@H]4C[C@H]5O[C@]56[C@@H](O)C=CC(=O)[C@]6(C)[C@H]4CC[C@]23C)C1 [withaferin A] | low permeability |  | oral bioavailability [2]: about 5%; detectability in plasma [3]: not detectable; half-life [4]: 5.6 min
CC1=C(C)C(=O)O[C@@H]([C@](C)(O)[C@H]2CC[C@H]3[C@@H]4[C@@H]5O[C@@H]5[C@@]5(O)CC=CC(=O)[C@]5(C)[C@H]4CC[C@]23C)C1 [withanolide A] |  | highly permeable | 
CC1=C(C)C(=O)O[C@@H]([C@@H](C)[C@H]2CC[C@H]3[C@@H]4[C@@H]5O[C@@H]5[C@@]5(O)CC=CC(=O)[C@]5(C)[C@H]4CC[C@]23C)C1 [withanolide B] |  | highly permeable | 
CC1=C(C)C(=O)O[C@@H]([C@@H](C)[C@@]2(O)CC[C@H]3[C@@H]4[C@@H]5O[C@@H]5[C@@]5(O)CC=CC(=O)[C@]5(C)[C@H]4CC[C@@]32C)C1 [withanone] | highly permeable |  | 
CC1=C(CO)C(=O)O[C@@H]([C@@H](C)[C@H]2CC[C@H]3[C@@H]4CC=C5C[C@@H](O[C@@H]6O[C@H](CO[C@@H]7O[C@H](CO)[C@@H](O)[C@H](O)[C@H]7O)[C@@H](O)[C@H](O)[C@H]6O)C[C@H](O)[C@]5(C)[C@H]4CC[C@]23C)C1 [withanoside IV] |  | low permeability | 
CC1=C(C)C(=O)O[C@@H]([C@@H](C)[C@H]2CC[C@H]3[C@@H]4CC=C5C[C@@H](O[C@@H]6O[C@H](CO[C@@H]7O[C@H](CO)[C@@H](O)[C@H](O)[C@H]7O)[C@@H](O)[C@H](O)[C@H]6O)C[C@H](O)[C@]5(C)[C@H]4CC[C@]23C)C1 [withanoside V] |  | low permeability | 
